How the values were obtained:
[1] = test system: Apo-B; experiment: Apo-B secretion assay in HepG2 cells (ELISA); format: cell-based; settings: Homo sapiens, 24 hour incubation, ELISA of growth media
Description: A test compound is considered to be active if it is active in any of the following screens. The activity of a compound according to the invention can be assessed by measuring inhibition of apo B secretion in HepG2 cells.
(§1) The following protocol is written for HepG2 cells types, but the same or similar protocol may be used with other cell types, such as Caco-2 cells.
(§2) HepG2 cells were grown in MEM Eagle's medium containing 10% fetal bovine serum with 1% penicillin/streptomycin in an incubator (5% CO2, 100% relative humidity, 37° C.). At ca. 85% confluency, the cells were treated with test compounds (0.2% DMSO) at appropriate concentrations in triplicate. After 24 hour incubation with the test compounds, growth media were collected from each sample. Concentrations for apo-B and apoA1 were determined using ELISA. Mouse anti-human Apo-B and ApoA1 antibody and Alk-phos conjugated secondary antibody (goat) was used in ELISA. Triplicate data in six half-log concentrations were used to calculate an IC50 value for each compound.

[2] = test system: Caco-2; experiment: Bidirectional Caco-2 permeability assay; format: in vitro ADME; settings: bidirectional Caco-2 assay, analysis by fluorescence and HPLC
Description: The following table (Table 1) depicts the activity of several compounds of Formula I or II according to the present invention. Permeability was measured in a bidirectional Caco-2 assay with analysis by fluorescence and HPLC.

[3] = test system: Apo-B; experiment: Apo-B secretion assay in Caco-2 cells (ELISA); format: cell-based; settings: Homo sapiens
Description: as §1, §2

[4] = test system: ApoA1; experiment: ApoA1 secretion assay in HepG2 cells (ELISA); format: cell-based; settings: Homo sapiens, 24 hour incubation, ELISA of growth media
Description: as §1, §2

[5] = test system: ApoA1; experiment: ApoA1 secretion assay in Caco-2 cells (ELISA); format: cell-based; settings: Homo sapiens
Description: as §1, §2

Row | SMILES | IC50 [1] | Caco-2 (10-6 cm/sec) [2] | IC50 [3] | IC50 [4] | IC50 [5]
1 | O=C(Nc1ccc2c(c1)CCN(C(=S)NCc1ccccc1)C2)c1ccccc1-c1ccc(C(F)(F)F)cc1 [Compound 10] | 3 nM | 0 10-6 cm/sec | 40 nM | > 30000 nM | > 30000 nM
2 | COc1cccc(C(=O)Nc2ccc3c(c2)CCN(C(=O)Oc2ccccc2)C3)c1-c1ccc(C(F)(F)F)cc1 [Compound 11] | 1.6 nM | 0 10-6 cm/sec | 7.7 nM | > 30000 nM | > 30000 nM
3 | COc1cccc(C(=O)Nc2ccc3c(c2)CCN(C(=O)OC(C)(C)C)C3)c1-c1ccc(C(F)(F)F)cc1 [Compound 15] | 6 nM | 0 10-6 cm/sec | 60 nM | > 30000 nM | > 30000 nM
4 | CC(C)Oc1cccc(C(=O)Nc2ccc3c(c2)CCN(C(=O)Oc2ccccc2)C3)c1-c1ccc(C(F)(F)F)cc1 [Compound 17] | 0.7 nM | 0 10-6 cm/sec | 16 nM | > 30000 nM | > 30000 nM
5 | COc1cccc(C(=O)Nc2ccc3c(c2)CCN(C(=O)Oc2ccc(F)cc2)C3)c1-c1ccc(C(F)(F)F)cc1 [Compound 16] | 2.3 nM | 0 10-6 cm/sec | 11 nM | > 30000 nM | > 30000 nM
6 | COc1cccc(C(=O)Nc2ccc3c(c2)CCN(c2nc(-c4ccccc4)cs2)C3)c1-c1ccc(C(F)(F)F)cc1 [Compound 14] | 230 nM | 0 10-6 cm/sec | 4400 nM | > 30000 nM | > 30000 nM
7 | COCCCNC(=S)N1CCc2cc(NC(=O)c3ccccc3-c3ccc(C(F)(F)F)cc3)ccc2C1 [Compound 13] | 30 nM | 30 10-6 cm/sec | 15 nM | > 30000 nM | > 30000 nM
8 | O=C(Nc1ccc2c(c1)CCN(C(=O)OCc1ccccc1)C2)c1ccccc1-c1ccc(C(F)(F)F)cc1 [Compound 12] | 220 nM | 0 10-6 cm/sec | 110 nM | > 30000 nM | > 30000 nM

From US9656960B2, “Inhibitors of microsomal triglyceride transfer protein and apo-B secretion” (Surface Logix, Inc., priority 2005, dated 2017)
